# Read-outs that look alike come from different tables or passages of the source.
# Assays:
# DIO mice = assay: Diet-induced obese (DIO) mouse model; assay type: in vivo
# Source text: (§1) Data are shown as mean±SD. N=5-8 animals per group. *p≤0.05, **p≤0.01, ***p≤0.001, ****p≤0.0001 vs. vehicle, unless otherwise indicated; ^#p≤0.05 pioglitazone vs. vehicle Kruskal-Wallis (non-parametric One-Way ANOVA) test with Dunn's multiple comparisons test (FIG. 4A, FIG. 4B, FIG. 4D), repeated measures two-way ANOVA with Dunnett's multiple comparisons test (FIG. 4C), two-way ANOVA with Sidak's multiple comparisons test (FIG. 4E), Mann-Whitney test (FIG. 4F-G).
# (§2) Data are shown as mean±SD. N=5-8 animals per group. *p≤0.05, **p≤0.01, ***p≤0.001, ****p≤0.0001 vs. vehicle, unless otherwise indicated; ^#p≤0.05 pioglitazone vs. vehicle repeated measures two-way ANOVA with Dunnett's multiple comparisons test (FIG. 5A, FIG. 5C, FIG. 5D), Kruskal-Wallis (non-parametric one-way ANOVA) test with Dunn's multiple comparisons test (FIG. 5B, FIG. 5E).
# (§3) The efficacy of Compound 21/3 was evaluated in three dysmetabolic rodent models including DIO mice, HFD-fed ZDF rats, and HFD-fed SD rats (FIG. 4 and FIG. 5). Briefly, DIO mice were fed a HFD (60% kcal from fat) for 14 weeks and treated with Compound 21/3 (0.3 and 1 mg/kg once daily by oral gavage) for three weeks, while ZDF and SD rats were fed HFD for two weeks prior to treatment with Compound 21/3 (0.1 and 1 mg/kg once daily by oral gavage) for two or three weeks, respectively.
# HFD-fed SD rats = assay: HFD-fed Sprague-Dawley (SD) rat model; assay type: in vivo
# Source text: as §1, §2, §3
# [1] = Phase 1 study, SAD cohorts: plasma pharmacokinetics; assay type: in vivo, human; details: for AUC(0-inf) / Cmax / Tmax / half-life: both sexes, human, oral, plasma
# Method: (§4) A double-blind, placebo-controlled, single- and multiple-ascending dose FIH Phase 1 study to evaluate the safety, tolerability, PK, and PD of Compound 21/3 in healthy adult subjects was performed. A total of up to 150 subjects were enrolled, including 100 subjects in Parts A and B, and up to 50 subjects in adaptive cohorts in Part C. Within each cohort, 10 subjects were randomized, including 8 subjects randomized to Compound 21/3 and 2 subjects to PTM (placebo-to-match). In single-dose cohorts in Parts A and in any Part C cohort evaluating a higher total daily dose than previously evaluated, safety and tolerability data collected through Day 2 from two sentinel subjects, one randomized to Compound 21/3 and one to PTM, were evaluated prior to dosing of the remaining subjects in each cohort.
# Intensive PK sampling over 72 h postdose on Day 1 (SAD and MAD) and Day 14 (MAD) was performed. Compound 21/3 plasma concentrations were determined using validated liquid chromatography-tandem mass spectrometry assay. PK parameters were estimated via noncompartmental methods using Pheonix® WinNonlin® 6.2.1 and 8.3.4 (Certara, LP, Princeton, NJ).
# Part A evaluated the safety, tolerability, PK, and PD of single-ascending doses of oral Compound 21/3 or placebo under fed conditions. Part A proceeded in up to 5 dose-escalation cohorts and governed by a review of safety, tolerability, and any available and relevant PK and/or PD data, and study-specific stopping criteria.
# healthy subjects = assay: Phase 1 study, SAD cohorts: safety and tolerability; assay type: in vivo, human; details: range over dose groups
# Method: as §4
# An approximately even distribution of healthy male and non-pregnant, non-lactating female subjects 18 to 55 years of age, inclusive, were to be enrolled in the study. There were no significant medical conditions by history, physical examination, or laboratory evaluation. Subjects were not allowed to participate in more than one cohort of the study. Within each MAD cohort, attempts were made to enrich for >3 subjects with elevated TG and/or LDL-C. Following the completion of Screening and admission assessments, eligible subjects were to be enrolled on Day −1. […]
smiles,measurement,setting,value
N#Cc1cccc(C#N)c1-c1c(-c2cccc(-c3ccc(C(=O)NCC(=O)O)cc3Cl)c2)n(S(=O)(=O)c2ccc(C(F)F)cc2)c2ccc(F)cc12 [Compound 21/3],"expression of Hmgcr and Cyp7a1 in the liver and Abca1, Abcg5, Abcg8 in the intestine",DIO mice; DIO mice,dose-dependently reduced
same,expression of cholesterol efflux transporters Abca1 and Abcg1 in the buffy coat,DIO mice; DIO mice,did not alter
same,plasma TG levels,DIO mice; DIO mice,reduced
same,"liver expression of DNL genes (Srebp1c, Fasn, Acaca, Scd1)","DIO mice; DIO mice, 0.3 and 1 mg/kg once daily oral, three weeks",dose-dependently reduced
same,maximal reduction of liver TG versus vehicle,"DIO mice; DIO mice, p≤0.001",65%
same,reduction of plasma total cholesterol (TC) at end of treatment compared with vehicle,"DIO mice; DIO mice, p≤0.05",49%
same,intestinal Srebp1c expression,"DIO mice; DIO mouse, ileum",dose-dependently reduced
same,liver TC,"DIO mice; dysmetabolic rodent models (FIG. 5B), particularly higher dose groups",statistically significant increase
same,"liver biochemistry tests, plasma ALT or AST, compared with vehicle",DIO mice; dysmetabolic rodent models (FIG. 5C-D),not associated with substantial elevations
same,"liver expression of DNL genes (Srebp1c, Fasn, Acaca, Scd1)",HFD-fed SD rats; 0.1 and 1 mg/kg once daily oral,dose-dependently reduced
same,reduction of plasma TG compared with vehicle,"HFD-fed SD rats; highest dose 1 mg/kg, p≤0.05",59%
same,maximal reduction of liver TG versus vehicle,HFD-fed SD rats; p=0.07,42%
same,AUC(0-inf),"[1]; Day 1, 0.5 mg, mean",1.2 ng·h/mL
same,Cmax,"[1]; Day 1, 0.5 mg, mean, read-out: Cmax",0.37 ng/mL
same,Tmax,"[1]; Day 1, 0.5 mg, median",3.5 h
same,half-life,"[1]; Day 1, 0.5 mg, median",2.1 h
same,AUC(0-inf),"[1]; Day 1, 2 mg, mean",8.5 ng·h/mL
same,Cmax,"[1]; Day 1, 2 mg, mean, read-out: Cmax",0.54 ng/mL
same,Tmax,"[1]; Day 1, 2 mg, median",3.75 h
same,half-life,"[1]; Day 1, 2 mg, median",4.96 h
same,AUC(0-inf),"[1]; Day 1, 6 mg, mean",10 ng·h/mL
same,Cmax,"[1]; Day 1, 6 mg, mean, read-out: Cmax",3.33 ng/mL
same,Tmax,"[1]; Day 1, 6 mg, median",4 h
same,half-life,"[1]; Day 1, 6 mg, median",1.37 h
same,AUC(0-inf),"[1]; Day 1, 12 mg, mean",17.1 ng·h/mL
same,Cmax,"[1]; Day 1, 12 mg, mean, read-out: Cmax",4.69 ng/mL
same,Tmax,"[1]; Day 1, 12 mg, median",3 h
same,half-life,"[1]; Day 1, 12 mg, median",2.02 h
same,AUC(0-inf),"[1]; Day 1, 20 mg, mean",20.6 ng·h/mL
same,Cmax,"[1]; Day 1, 20 mg, mean, read-out: Cmax",6.79 ng/mL
same,Tmax,"[1]; Day 1, 20 mg, median",2.5 h
same,half-life,"[1]; Day 1, 20 mg, median",2.36 h
same,half-life,[1]; healthy subjects,2 to 3 h
same,Tmax,"[1]; healthy subjects, postdose",3 to 4 h
same,Cmax,"[1]; healthy subjects, read-out: maximal plasma concentrations (Cmax)",< 7 ng/mL
same,dose proportionality of plasma exposure,[1]; healthy subjects,less than dose-proportional increases
same,proportion of subjects with adverse events (AEs),healthy subjects,13-50%

# Reference: patent US20260083704A1, “LXR MODULATORS WITH BICYCLIC CORE MOIETY FOR TREATING DYSLIPIDEMIAS” (OrsoBio, Inc., priority 2022, published 2026)
